Source: patent publication US20070117833A1, “Pharmaceutical compositions” (priority 2003, published 2007)

Key:
[1] = test system: human rheumatoid synovial fibroblast; experiment: Spontaneous proliferation of human rheumatoid synovial fibroblast; assay type: cell-based
LPS induced fever = experiment: LPS fever (antipyretic effects); assay type: in vivo; conditions: rats, LPS 100 μg/kg s.c., p.o.; (95% limits)
Protocol: LPS fever. An injection of lypopolysaccharide (LPS) at a dose of 100 μg/kg in 5 ml/kg is given subcutaneously, and 2 hours later the temperature is measured using a rectal thermocouple. The rats are then placed into matched treatment groups according to their temperature responses. At time +4 hours, the mTOR inhibitor is administered p.o., and the final temperatures measured again at time +6 hours. The increase in temperature is calculated for each animal and the % inhibition determined for each treatment group compared to the vehicle control group.

IL-1β induced fever = experiment: IL-1 fever (antipyretic effects); assay type: in vivo; conditions: rats, 100 ng IL-1β i.v., p.o.
Protocol: IL-1 fever. Baseline temperature is measured and the rats placed into matched groups. The animals are dosed with the mTOR inhibitor (0.5, 2 or 4 mg/kg) p.o., and 30 minutes later given an injection of 100 ng IL-1β i.v. At time +4hours the final temperatures are measured and the % inhibition calculated as for LPS fever.

paw hyperalgesia = experiment: Anti-nociceptive activity in a model of inflammatory pain (intra-plantar yeast hyperalgesia); assay type: in vivo, male OFA rats
Protocol: Hyperalgesia is induced by an intra-plantar yeast injection and nociception measured by applying increasing pressure to the foot until the animal vocalizes or withdraws its foot from the pressure pad. The baseline pressure required to induce vocalization or withdrawal of the paw of male OFA rats is measured (−2 hours), followed by an intra-plantar injection of 100 μl of a 20% yeast suspension in water in the hind paw. The rats are treated orally with rapamycin or a derivative thereof (0.5, 2 or 4 mg/kg) or vehicle (saline) p.o. 2 hours later (0 hours), and the pressure test repeated 1 and 2 hours after dosing. The pressure required to induce vocalization or paw withdrawal of the compound-treated rats at these time-points is compared to that of vehicle-treated animals.

rheumatoid arthritis = experiment: Placebo-controlled, double blind clinical trial in RA patients who are methotrexate partial responders; assay type: in vivo, human; conditions: 6 mg/day in combination with background methotrexate
Protocol: 120 patients who are methotrexate partial responders are randomized in 2 groups to receive the mTOR inhibitor a) or placebo once daily for 12 weeks while continuing their background methotrexate treatment. There is an initial Screening visit (days −21 to −7) prior to the baseline. Disease status is assessed at the Screening and Baseline visits. During the 12 weeks treatment period the patients will be seen at Weeks 1, 2, 4, 8 and 12 and in the follow-up period at Weeks 14, 16, 20 and 24.
The criteria for inclusion of the patients in the trial: they must have a diagnosis of RA as defined by the […] revised ARA criteria with disease duration of no less than 6 months. All patients must have active RA as defined by the following parameters: • at least 6 swollen and 9 tender joints based on 58/60 joint count upon entry into the study • one of the following: erythrocyte sedimentation rate (ESR) >28 mm/hr, C-reactive protein (CRP)>1.5 mg/dL or morning stiffness>45 minutes
Patients must have received methotrexate for at least 16 weeks and must be on a stable dose (≧7.5 mg/week) and route of administration for at least 8 weeks prior to Day 1. […]
The primary efficacy outcome measure is the attainment of ACR20 criteria for improvement of RA and the proportion of patients in each group meeting the ACR20 criteria is determined. […]

[2] = 4-week toxicity study in rats; assay type: in vivo
Protocol: (§1) Rapamycin or derivatives thereof are well tolerated at dosages required for use in accordance with the present invention. For example, the NTEL for Compound A in a 4-week toxicity study is 0.5 mg/kg/day in rats and 1.5 mg/kg/day in monkeys.

[3] = 4-week toxicity study in monkeys; assay type: in vivo
Protocol: as §1

| Compound | concentration at which maximal effects are observed ([1]; bromodeoxyuridine method) | suppression of the growth of synovial cells ([1]; by both criteria: bromodeoxyuridine incorporation and direct counting of viable cells) | concentration at which maximal effects are shown ([1]; direct cell counting) | ED50 inhibition of LPS-induced fever (LPS induced fever) | ED50 inhibition of IL-1β-induced fever (IL-1β induced fever) | inhibition of paw hyperalgesia (paw hyperalgesia; 2 mg/kg p.o., 1 hour after dosing) | inhibition of paw hyperalgesia (paw hyperalgesia; 4 mg/kg p.o., 1 hour after dosing) | inhibition of paw hyperalgesia (paw hyperalgesia; 4 mg/kg p.o., 2 hours after dosing) | ACR Responders (in %) to ACR20 (rheumatoid arthritis; Week 2) | ACR Responders (in %) to ACR20 (rheumatoid arthritis; Week 12) | NTEL [2] | NTEL [3] | concentration at which suppression is maximal ([1]; synovial cell growth assessed by total intracellular ATP levels) |
| --- | --- | --- | --- | --- | --- | --- | --- | --- | --- | --- | --- | --- | --- |
| CO[C@H]1C[C@@H]2CC[C@@H](C)[C@@](O)(O2)C(=O)C(=O)N2CCCC[C@H]2C(=O)O[C@H]([C@H](C)C[C@@H]2CC[C@@H](OCCO)[C@H](OC)C2)CC(=O)[C@H](C)/C=C(\C)[C@@H](O)[C@@H](OC)C(=O)[C@H](C)C[C@H](C)/C=C/C=C/C=C/1C [Compound A, 40-0-(2-hydroxyethyl)-rapamycin] | 10 pM | significantly suppresses | 10 nM | 1.9 (1.21-2.41) mg/kg p.o. | < 0.54 mg/kg p.o. | significantly inhibits | significantly inhibits | significantly inhibits | 14.8% | 36.1% | 0.5 mg/kg/day | 1.5 mg/kg/day | – |
| CO[C@H]1C[C@@H]2CC[C@@H](C)[C@@](O)(O2)C(=O)C(=O)N2CCCC[C@H]2C(=O)O[C@H]([C@H](C)C[C@@H]2CC[C@@H](O)[C@H](OC)C2)CC(=O)[C@H](C)/C=C(\C)[C@@H](O)[C@@H](OC)C(=O)[C@H](C)C[C@H](C)/C=C/C=C/C=C/1C [rapamycin, Rapamycin, reference compound] | – | – | – | – | – | – | – | – | – | – | – | – | 10 pM |
